Results reported in ChEMBL document CHEMBL5465560, “Selectivity Literature for EUbOPEN Chemogenomic Library” (2024).
Blank lines part the entries; values can stand above or below the compound they belong to.

How the values were obtained:
[1] = target: T1, Tyrosine-protein kinase JAK3 (Homo sapiens) (UniProt P52333); test: Selectivity interaction (Kinase panel (literature)) EUB0001199aCl JAK3; details: at 1 µM
T1 sequence (whole entry): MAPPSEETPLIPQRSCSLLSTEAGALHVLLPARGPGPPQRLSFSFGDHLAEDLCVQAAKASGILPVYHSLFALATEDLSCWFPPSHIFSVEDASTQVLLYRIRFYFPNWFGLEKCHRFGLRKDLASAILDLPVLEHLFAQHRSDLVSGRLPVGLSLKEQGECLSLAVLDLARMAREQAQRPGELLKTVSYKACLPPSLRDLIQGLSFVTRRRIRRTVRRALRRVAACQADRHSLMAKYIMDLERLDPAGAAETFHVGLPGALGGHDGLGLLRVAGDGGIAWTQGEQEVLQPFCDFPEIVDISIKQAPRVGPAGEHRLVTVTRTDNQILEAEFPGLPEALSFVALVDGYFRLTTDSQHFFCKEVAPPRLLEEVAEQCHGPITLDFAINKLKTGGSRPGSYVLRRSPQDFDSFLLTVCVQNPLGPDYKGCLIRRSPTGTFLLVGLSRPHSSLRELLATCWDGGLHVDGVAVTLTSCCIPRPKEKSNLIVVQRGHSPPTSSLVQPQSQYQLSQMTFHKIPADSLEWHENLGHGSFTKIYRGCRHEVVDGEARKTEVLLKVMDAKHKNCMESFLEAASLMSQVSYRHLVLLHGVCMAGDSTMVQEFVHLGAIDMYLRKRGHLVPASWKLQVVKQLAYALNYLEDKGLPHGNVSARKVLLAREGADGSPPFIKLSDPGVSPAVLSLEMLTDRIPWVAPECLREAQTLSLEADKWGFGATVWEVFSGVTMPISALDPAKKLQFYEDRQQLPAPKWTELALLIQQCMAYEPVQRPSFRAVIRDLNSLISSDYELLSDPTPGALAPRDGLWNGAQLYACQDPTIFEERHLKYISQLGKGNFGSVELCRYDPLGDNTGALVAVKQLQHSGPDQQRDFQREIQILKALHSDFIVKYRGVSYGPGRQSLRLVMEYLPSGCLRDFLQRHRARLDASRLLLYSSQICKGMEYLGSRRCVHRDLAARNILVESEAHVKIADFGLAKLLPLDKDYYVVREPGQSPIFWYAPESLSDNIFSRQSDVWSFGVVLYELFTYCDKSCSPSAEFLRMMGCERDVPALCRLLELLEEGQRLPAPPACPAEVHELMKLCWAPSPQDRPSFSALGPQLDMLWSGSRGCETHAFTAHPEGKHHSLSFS

[2] = target: RAC-alpha serine/threonine-protein kinase (Homo sapiens, UniProt P31749); test: Selectivity interaction (KinomeScan (DiscoverX)) EUB0000595a AKT1; details: at 10 µM
[3] = target: Protein-tyrosine kinase 6 (Homo sapiens, UniProt Q13882); test: Selectivity interaction (KinomeScan (DiscoverX)) EUB0000595a PTK6; details: at 10 µM
[4] = target: T2, Protein kinase C epsilon type (Homo sapiens) (UniProt Q02156); test: Selectivity interaction (Ambit KINOMEscan and KiNATiv profiling in Jurkat cells) EUB0000090b PRKCE; type: cell-based; details: at 1 µM
T2 sequence (whole entry): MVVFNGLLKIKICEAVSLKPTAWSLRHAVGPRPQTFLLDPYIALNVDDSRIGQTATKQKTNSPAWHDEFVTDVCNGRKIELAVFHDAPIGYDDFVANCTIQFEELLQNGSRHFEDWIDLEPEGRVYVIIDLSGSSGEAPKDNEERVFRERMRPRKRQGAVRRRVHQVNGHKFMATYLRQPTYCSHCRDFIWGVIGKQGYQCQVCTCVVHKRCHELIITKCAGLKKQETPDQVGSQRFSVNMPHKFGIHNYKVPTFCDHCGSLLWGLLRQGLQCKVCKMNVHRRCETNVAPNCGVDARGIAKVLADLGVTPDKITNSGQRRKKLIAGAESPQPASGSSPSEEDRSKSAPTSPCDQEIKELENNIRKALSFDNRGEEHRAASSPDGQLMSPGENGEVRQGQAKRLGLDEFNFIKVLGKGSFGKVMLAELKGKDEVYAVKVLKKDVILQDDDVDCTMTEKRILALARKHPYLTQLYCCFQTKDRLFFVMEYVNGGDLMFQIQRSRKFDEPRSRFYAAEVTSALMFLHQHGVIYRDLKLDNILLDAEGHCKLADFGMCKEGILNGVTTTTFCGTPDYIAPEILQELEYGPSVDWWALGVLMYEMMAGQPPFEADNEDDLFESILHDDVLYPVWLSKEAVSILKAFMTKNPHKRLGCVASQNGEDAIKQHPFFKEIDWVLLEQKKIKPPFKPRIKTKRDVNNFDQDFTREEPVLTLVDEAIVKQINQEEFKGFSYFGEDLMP

[5] = target: T3, Histone-lysine N-methyltransferase SUV39H1 (Homo sapiens) (UniProt O43463); details: at 10 µM
T3 sequence (whole entry): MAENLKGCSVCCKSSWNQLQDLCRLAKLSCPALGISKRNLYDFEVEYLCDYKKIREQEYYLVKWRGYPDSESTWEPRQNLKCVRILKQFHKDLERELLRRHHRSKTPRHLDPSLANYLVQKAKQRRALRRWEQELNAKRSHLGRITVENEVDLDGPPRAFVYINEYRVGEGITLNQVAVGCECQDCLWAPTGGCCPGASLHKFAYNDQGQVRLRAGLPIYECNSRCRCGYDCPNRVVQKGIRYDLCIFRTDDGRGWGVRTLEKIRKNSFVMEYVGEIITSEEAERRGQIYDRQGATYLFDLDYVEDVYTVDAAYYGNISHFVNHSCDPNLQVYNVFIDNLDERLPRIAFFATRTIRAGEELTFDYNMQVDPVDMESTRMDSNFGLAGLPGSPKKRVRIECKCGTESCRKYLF

[6] = target: T4, Serine/threonine-protein kinase 17A (Homo sapiens) (UniProt Q9UEE5); test: Selectivity interaction (KinomeScan (DiscoverX)) EUB0000618a STK17A; details: at 10 µM
T4 sequence (whole entry): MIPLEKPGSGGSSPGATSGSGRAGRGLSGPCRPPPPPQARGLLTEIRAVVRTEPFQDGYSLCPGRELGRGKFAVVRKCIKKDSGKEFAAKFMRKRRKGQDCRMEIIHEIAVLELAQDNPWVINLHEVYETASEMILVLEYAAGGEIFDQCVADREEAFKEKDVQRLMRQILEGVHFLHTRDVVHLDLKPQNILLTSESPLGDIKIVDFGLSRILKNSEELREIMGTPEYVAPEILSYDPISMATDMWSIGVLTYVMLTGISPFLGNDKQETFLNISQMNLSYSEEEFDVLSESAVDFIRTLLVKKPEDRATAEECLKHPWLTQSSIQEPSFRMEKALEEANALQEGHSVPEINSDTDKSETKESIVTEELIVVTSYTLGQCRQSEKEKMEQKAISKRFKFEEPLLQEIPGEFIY

[7] = target: Mitogen-activated protein kinase 4 (Homo sapiens) (UniProt P31152); test: Selectivity interaction (KinomeScan (DiscoverX)) EUB0001619a MAPK4; details: at 1 µM
Mitogen-activated protein kinase 4 (Homo sapiens), sequence (P31152 whole entry): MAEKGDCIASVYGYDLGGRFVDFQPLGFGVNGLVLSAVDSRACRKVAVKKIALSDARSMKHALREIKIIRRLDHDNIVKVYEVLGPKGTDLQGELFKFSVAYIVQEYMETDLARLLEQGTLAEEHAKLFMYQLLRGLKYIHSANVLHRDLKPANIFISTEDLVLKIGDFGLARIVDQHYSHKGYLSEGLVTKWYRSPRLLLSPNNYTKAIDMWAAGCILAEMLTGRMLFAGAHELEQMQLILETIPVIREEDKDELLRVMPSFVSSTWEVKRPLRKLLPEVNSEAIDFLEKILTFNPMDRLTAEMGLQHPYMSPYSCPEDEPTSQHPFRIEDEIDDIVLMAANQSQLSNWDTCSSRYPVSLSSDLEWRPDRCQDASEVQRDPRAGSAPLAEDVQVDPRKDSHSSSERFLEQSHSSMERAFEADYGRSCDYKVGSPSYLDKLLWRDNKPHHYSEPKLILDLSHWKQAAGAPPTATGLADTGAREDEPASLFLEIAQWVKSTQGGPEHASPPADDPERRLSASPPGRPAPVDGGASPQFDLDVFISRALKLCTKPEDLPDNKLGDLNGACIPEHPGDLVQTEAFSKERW

Protein-tyrosine kinase 6, sequence (Q13882 whole entry, looked up): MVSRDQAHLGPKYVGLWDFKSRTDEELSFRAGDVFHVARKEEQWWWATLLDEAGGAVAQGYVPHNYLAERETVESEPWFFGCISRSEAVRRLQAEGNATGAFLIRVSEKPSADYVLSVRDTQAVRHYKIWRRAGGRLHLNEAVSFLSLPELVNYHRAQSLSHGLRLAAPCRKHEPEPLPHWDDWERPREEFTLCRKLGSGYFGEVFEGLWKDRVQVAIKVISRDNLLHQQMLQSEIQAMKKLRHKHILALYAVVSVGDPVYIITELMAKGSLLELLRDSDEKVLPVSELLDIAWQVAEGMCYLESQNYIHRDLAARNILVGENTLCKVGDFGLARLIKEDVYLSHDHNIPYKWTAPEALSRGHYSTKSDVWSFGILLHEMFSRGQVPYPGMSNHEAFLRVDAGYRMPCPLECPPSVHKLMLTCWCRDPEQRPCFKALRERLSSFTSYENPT
RAC-alpha serine/threonine-protein kinase, sequence (P31749 whole entry): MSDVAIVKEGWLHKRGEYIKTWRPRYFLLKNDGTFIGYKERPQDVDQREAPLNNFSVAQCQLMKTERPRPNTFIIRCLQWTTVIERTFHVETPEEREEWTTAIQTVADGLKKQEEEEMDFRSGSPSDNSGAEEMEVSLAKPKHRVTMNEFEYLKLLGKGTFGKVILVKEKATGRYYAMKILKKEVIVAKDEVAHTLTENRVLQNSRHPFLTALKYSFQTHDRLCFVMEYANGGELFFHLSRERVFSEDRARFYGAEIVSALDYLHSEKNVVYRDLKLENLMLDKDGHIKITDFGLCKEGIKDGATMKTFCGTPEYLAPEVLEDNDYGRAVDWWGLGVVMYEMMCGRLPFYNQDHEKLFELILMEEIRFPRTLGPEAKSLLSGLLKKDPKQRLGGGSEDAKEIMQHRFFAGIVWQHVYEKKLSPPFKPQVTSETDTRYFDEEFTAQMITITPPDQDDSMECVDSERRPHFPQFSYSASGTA

- % of inhibition [1]: -2%
Structure (SMILES): CN1Cc2nccc(-c3cn(C)nc3-c3ccc(F)cc3)c2C1=O

Structure (SMILES): COCC(=O)NC/C=C/c1ccc2ncnc(Nc3ccc(Oc4ccc(C)nc4)c(C)c3)c2c1 [CP-724714]
- % of control [2]: 100%
- % of control [3]: 100%

Structure (SMILES): CN(C)C/C=C/C(=O)Nc1ccc(C(=O)N2CCCC(Nc3ncc(Cl)c(-c4c[nH]c5ccccc45)n3)C2)cc1 (configuration not stated)
- % of control [4]: 99%

- % activity [5]: > 90%
Structure (SMILES): CNCCN1CCC(c2cc(CN(C)C(=O)c3cccc(Oc4ccccc4)c3)ccn2)CC1

Structure (SMILES): O[C@H]1CC[C@H](Nc2ncc3nc(Nc4c(F)cc(F)cc4F)n([C@H]4CCOC4)c3n2)CC1
- % of control [6]: 100%

Structure (SMILES): N#Cc1cccc(-c2c[nH]c3ncnc(N4CCOCC4)c23)c1
- % of control [7]: 95%
